Data reported in patent publication US8722578B2, “Spiroheterocyclic pyrrolidinedione herbicidal compositions” (Syngenta Participations AG, priority 2008, dated 2014).

What was measured:
[1] = system: Alopecurus myosuroides (ALOMY); assay: Example B post-emergence herbicidal activity, glasshouse pot test; type: in vivo; conditions: 312 h, evaluated after 13 days, read-out: ALOMY post-emergence activity (100=total damage to plant; 0=no damage to plant); for pest or weed control at 1000 g/ha: rate 1000 g/ha; for pest or weed control at 250 g/ha: rate 250 g/ha
Description: (§1) Seeds of a variety of test species are sown in standard soil in pots. After cultivation for one day (pre-emergence) or after 8 days cultivation (post-emergence) under controlled conditions in a glasshouse (at 24/16° C., day/night; 14 hours light; 65% humidity), the plants are sprayed with an aqueous spray solution derived from the formulation of the technical active ingredient in acetone/water (50:50) solution containing 0.5% Tween 20 (polyoxyethelyene sorbitan monolaurate, CAS RN 9005-64-5). The test plants are then grown in a glasshouse under controlled conditions in a glasshouse (at 24/16° C., day/night; 14 hours light; 65% humidity) and watered twice daily. After 13 days for pre and post-emergence, the test is evaluated (100=total damage to plant; 0=no damage to plant). Test Plants: Setaria faberi (SETFA), Alopecurus myosuroides (ALOMY), Echinochloa crus-galli (ECHCG), Avena fatua (AVEFA)

[2] = system: Echinochloa crus-galli (ECHCG); assay: as above; type: in vivo; conditions: 312 h, evaluated after 13 days, read-out: ECHCG post-emergence activity (100=total damage to plant; 0=no damage to plant); for pest or weed control at 1000 g/ha: rate 1000 g/ha; for pest or weed control at 250 g/ha: rate 250 g/ha
Description: as §1

Setaria faberi (SETFA) [3] = assay: as above; type: in vivo; conditions: 312 h, evaluated after 13 days, read-out: SETFA post-emergence activity (100=total damage to plant; 0=no damage to plant); for pest or weed control at 1000 g/ha: rate 1000 g/ha; for pest or weed control at 250 g/ha: rate 250 g/ha
Description: as §1

Avena fatua (AVEFA) [4] = assay: as above; type: in vivo; conditions: 312 h, evaluated after 13 days, read-out: AVEFA post-emergence activity (100=total damage to plant; 0=no damage to plant); for pest or weed control at 1000 g/ha: rate 1000 g/ha; for pest or weed control at 250 g/ha: rate 250 g/ha
Description: as §1

[5] = system: Alopecurus myosuroides (ALOMY); assay: Example B pre-emergence herbicidal activity, glasshouse pot test; type: in vivo; conditions: 312 h, first table (headed Post-Emergence, taken as pre-emergence), evaluated after 13 days, read-out: ALOMY activity (100=total damage to plant; 0=no damage to plant); for pest or weed control at 1000 g/ha: rate 1000 g/ha; for pest or weed control at 250 g/ha: rate 250 g/ha
Description: as §1

[6] = system: Echinochloa crus-galli (ECHCG); assay: as above; type: in vivo; conditions: 312 h, first table (headed Post-Emergence, taken as pre-emergence), evaluated after 13 days, read-out: ECHCG activity (100=total damage to plant; 0=no damage to plant); for pest or weed control at 1000 g/ha: rate 1000 g/ha; for pest or weed control at 250 g/ha: rate 250 g/ha
Description: as §1

Setaria faberi (SETFA) [7] = assay: as above; type: in vivo; conditions: 312 h, first table (headed Post-Emergence, taken as pre-emergence), evaluated after 13 days, read-out: SETFA activity (100=total damage to plant; 0=no damage to plant); for pest or weed control at 1000 g/ha: rate 1000 g/ha; for pest or weed control at 250 g/ha: rate 250 g/ha
Description: as §1

Avena fatua (AVEFA) [8] = assay: as above; type: in vivo; conditions: 312 h, first table (headed Post-Emergence, taken as pre-emergence), evaluated after 13 days, read-out: AVEFA activity (100=total damage to plant; 0=no damage to plant); for pest or weed control at 1000 g/ha: rate 1000 g/ha; for pest or weed control at 250 g/ha: rate 250 g/ha
Description: as §1

melting point	SMILES	pest or weed control at 1000 g/ha [1]	pest or weed control at 1000 g/ha [2]	pest or weed control at 1000 g/ha (Setaria faberi (SETFA) [3])	pest or weed control at 1000 g/ha (Avena fatua (AVEFA) [4])	pest or weed control at 1000 g/ha [5]	pest or weed control at 1000 g/ha [6]	pest or weed control at 1000 g/ha (Setaria faberi (SETFA) [7])	pest or weed control at 1000 g/ha (Avena fatua (AVEFA) [8])	pest or weed control at 250 g/ha [1]	pest or weed control at 250 g/ha [2]	pest or weed control at 250 g/ha (Setaria faberi (SETFA) [3])	pest or weed control at 250 g/ha (Avena fatua (AVEFA) [4])	pest or weed control at 250 g/ha [5]	pest or weed control at 250 g/ha [6]	pest or weed control at 250 g/ha (Setaria faberi (SETFA) [7])	pest or weed control at 250 g/ha (Avena fatua (AVEFA) [8])
171 to 172 °C	CON1CCC2(CC1)NC(=O)C(c1ccc(Cl)cc1Cl)=C2OC(=O)N(C)CCC#N [Compound P39]	10%	40%	50%	0%	0%	30%	60%	0%								
185 to 187 °C	CCOC(=O)OC1=C(c2c(C)cc(Br)cc2C)C(=O)NC12CCN(OC)CC2 [Compound P49]	90%	80%	80%	80%	80%	70%	80%	80%								
	CCON1CCC2(CC1)NC(=O)C(c1c(C)cc(C)cc1C)C2=O (centres unmarked) [Compound T5]	90%	100%	90%	60%	100%	100%	90%	90%								
174 to 175 °C	CCOC(=O)OC1=C(c2c(C)cc(C)cc2C)C(=O)NC12CCN(OCC)CC2 [Compound P22]	90%	100%	70%	60%	90%	100%	90%	90%								
201 to 203 °C	CON1CCC2(CC1)NC(=O)C(c1cc(C)ccc1C)=C2OC(=O)C(C)C [Compound P34]	10%	40%	60%	0%	30%	20%	20%	40%								
221 to 223 °C	CON1CCC2(CC1)NC(=O)C(c1ccc(Cl)cc1Cl)C2=O (centres unmarked) [Compound T2]	100%	100%	100%	90%	60%	0%	30%	40%								
239 to 240 °C	CON1CCC2(CC1)NC(=O)C(c1ccc(Br)cc1C)=C2OC(=O)C(C)(C)C [Compound P69]									90%	90%	90%	60%	40%	90%	100%	30%
260 to 264 °C	CON1CCC2(CC1)NC(=O)C(c1c(C)cc(Br)cc1C)C2=O (centres unmarked) [Compound T12]	80%	80%	90%	90%	70%	20%	90%	80%								
	CON1CCC2(CC1)NC(=O)C(c1c(C)cc(C)cc1C)C2=O (centres unmarked) [Compound T4]	100%	100%	100%	90%	90%	100%	90%	100%								
207 to 211 °C	C=CCOC(=O)OC1=C(c2c(C)cc(Br)cc2C)C(=O)NC12CCN(OC)CC2 [Compound P48]	80%	80%	80%	10%	100%	80%	90%	80%								
174 to 176 °C	CCOC(=O)OC1=C(c2cc(C3CC3)c(C)cc2C)C(=O)NC12CCN(OC)CC2 [Compound P55]									60%	70%	80%	60%	10%	40%	60%	0%
218 to 219 °C	CON1CCC2(CC1)NC(=O)C(c1cc(C3CC3)c(C)cc1C)=C2OC(=O)C(C)(C)C [Compound P56]									20%	50%	60%	40%				
	CCON1CCC2(CC1)NC(=O)C(c1c(C)cc(C)cc1C)=C2OC(=O)C(C)(C)C [Compound P25, 2,2-dimethyl-propionic acid 8-ethoxy-2-oxo-3-(2,4,6-trimethyl-phenyl)-1,8-diaza-spiro[4.5]dec-3-en-4-yl ester]	50%	40%	0%	0%	60%	80%	60%	0%								
199 to 201 °C	CCOC(=O)OC1=C(c2ccc(Br)cc2Cl)C(=O)NC12CCN(OC)CC2 [Compound P66]									90%	100%	90%	70%	30%	0%	10%	10%
203 to 205 °C	C=CCOC(=O)OC1=C(c2c(Cl)cccc2Cl)C(=O)NC12CCN(OC)CC2 [Compound P44]	50%	0%	50%	0%	20%	30%	30%	10%								
111 to 113 °C	COc1ccc(COC2=C(c3ccc(Cl)cc3Cl)C(=O)NC23CCN(OC)CC3)cc1 [Compound P32]	70%	80%	90%	60%												
187 to 189 °C	CON1CCC2(CC1)NC(=O)C(c1ccc(Br)cc1C)C2=O (centres unmarked) [Compound T22]									60%	80%	80%	40%				
167 to 169 °C	CON1CCC2(CC1)NC(=O)C(c1ccc(Br)cc1Cl)C2=O (centres unmarked) [Compound T21]									80%	90%	80%	60%				
